≈ marks a conversion by molar mass, not a printed value.
Tested on: S. aureus ATCC 29213
Test: In vitro susceptibility test, antimicrobial dilution method (CLSI), MIC
Format: cell-based
Conditions: Staphylococcus aureus, ATCC29213, read-out: MIC (Minimum Inhibitory Concentration)
Description: For all the tests performed, there was a positive control of antifungal activity using fluconazole (for Malassezia) and ceftriaxone (for the bacterial strains) and a negative control (absence of the compounds) wherein correct microbial growth was evaluated.

- MIC: 3000 µg/mL (≈ 4.8 mM)
SMILES: C[C@@H]1O[C@@H](O[C@@H]2[C@@H](O)[C@H](OCCc3ccc(O)c(O)c3)O[C@H](CO)[C@H]2OC(=O)/C=C/c2ccc(O)c(O)c2)[C@H](O)[C@H](O)[C@H]1O [Verbascoside, verbascoside]
